These are literature values, as cited in patent US20040121961A1, “Uroguanylin and cyclooxygenase-2 inhibitor combinations for inhibition of intestinal cancer” (priority 2004, published 2004).

The test system of data set [1] is T-84, human colon carcinoma cells. As to conditions: treatment with uroguanylin; reported in PCT/US00/21998.
For data set [2], the system named is Min-mouse, an animal model for human Familial Adenomatous Polyposis (FAP). As to conditions: oral administration, reported in PCT/US00/21998.

No end group written: not given here.

Turning to “uroguanylin: enteric peptide hormone, GC-C receptor agonist; human uroguanylin chemically synthesized by solid phase peptide synthesis (NDDCELCVNVACTGCL; ends and bridges not checked; cysteine pairing not given here; UniProt Q16661 97-112, looked up)”, in data set [1], the “apoptosis in T-84 cells” value is listed as “induction of apoptosis”. Further, the “polyp formation in the intestinal tract” value in data set [2] was “inhibition in polyp formation”.
